From the NIST ThermoML archive (doi:10.1016/j.jct.2018.04.019)

Conditions: Liquid; for speed of sound: Frequency=5 MHz, Pulse-echo method; for mass density: Vibrating tube method

CCCCCCCCC [nonane]
Conditions	mass density [kg/m3]	speed of sound [m/s]
283.13 K, 1090 kPa	–	1273.9
283.13 K, 30100 kPa	–	1432.4
283.13 K, 59970 kPa	–	1563.7
283.13 K, 90370 kPa	–	1676.8
283.13 K, 120250 kPa	–	1774.7
283.13 K, 149990 kPa	–	1862.2
283.13 K, 180130 kPa	–	1943.2
283.13 K, 210070 kPa	–	2017.3
283.13 K, 240000 kPa	–	2086.3
283.13 K, 270320 kPa	–	2151.8
283.13 K, 300010 kPa	–	2212.5
283.13 K, 330300 kPa	–	2271
283.13 K, 360220 kPa	–	2326
283.13 K, 389880 kPa	–	2378.1
283.15 K, 1010 kPa	726.22	–
283.15 K, 5020 kPa	729.22	–
283.15 K, 5040 kPa	729.17	–
283.15 K, 10020 kPa	732.75	–
283.15 K, 15020 kPa	736.14	–
283.15 K, 20040 kPa	739.41	–
283.15 K, 25020 kPa	742.54	–
283.15 K, 30040 kPa	745.52	–
283.15 K, 35050 kPa	748.45	–
283.15 K, 40010 kPa	751.23	–
283.15 K, 45050 kPa	753.99	–
283.15 K, 50010 kPa	756.62	–
283.15 K, 55020 kPa	759.19	–
283.15 K, 60030 kPa	761.66	–
283.15 K, 65010 kPa	764.08	–
298.15 K, 1020 kPa	714.83	–
298.15 K, 1040 kPa	–	1212.6
298.15 K, 5010 kPa	718.08	–
298.15 K, 5040 kPa	718.12	–
298.15 K, 10030 kPa	721.94	–
298.15 K, 15060 kPa	725.7	–
298.15 K, 20040 kPa	729.17	–
298.15 K, 25040 kPa	732.54	–
298.15 K, 30010 kPa	735.76	–
298.15 K, 30040 kPa	–	1380.2
298.15 K, 35050 kPa	738.87	–
298.15 K, 40010 kPa	741.88	–
298.15 K, 45060 kPa	744.79	–
298.15 K, 50010 kPa	747.56	–
298.15 K, 55040 kPa	750.31	–
298.15 K, 60020 kPa	752.92	–
298.15 K, 60130 kPa	–	1518
298.15 K, 65010 kPa	755.48	–
298.15 K, 90110 kPa	–	1633.4
298.15 K, 120200 kPa	–	1734.7
298.15 K, 150120 kPa	–	1824.9
298.15 K, 180370 kPa	–	1907.9
298.15 K, 210410 kPa	–	1983.7
298.15 K, 240020 kPa	–	2053.1
298.15 K, 270230 kPa	–	2119.6
298.15 K, 300100 kPa	–	2181.4
298.15 K, 330260 kPa	–	2240.5
298.15 K, 360030 kPa	–	2296
298.15 K, 390030 kPa	–	2349.2
323.14 K, 1020 kPa	–	1112.3
323.14 K, 30050 kPa	–	1297.8
323.14 K, 60210 kPa	–	1445.2
323.14 K, 90150 kPa	–	1566.7
323.14 K, 120240 kPa	–	1672.3
323.14 K, 150130 kPa	–	1765.5
323.14 K, 179980 kPa	–	1850.1
323.14 K, 210410 kPa	–	1929.2
323.14 K, 239980 kPa	–	2000.4
323.14 K, 270330 kPa	–	2068.7
323.14 K, 300070 kPa	–	2131.6
323.14 K, 330050 kPa	–	2191.3
323.14 K, 360040 kPa	–	2247.9
323.14 K, 390060 kPa	–	2301.7
323.15 K, 1030 kPa	695.27	–
323.15 K, 5030 kPa	699.04	–
323.15 K, 5060 kPa	699.09	–
323.15 K, 10050 kPa	703.57	–
323.15 K, 15020 kPa	707.81	–
323.15 K, 20050 kPa	711.84	–
323.15 K, 25020 kPa	715.63	–
323.15 K, 30020 kPa	719.22	–
323.15 K, 35080 kPa	722.75	–
323.15 K, 40050 kPa	726.09	–
323.15 K, 45060 kPa	729.27	–
323.15 K, 50030 kPa	732.36	–
323.15 K, 55050 kPa	735.35	–
323.15 K, 60010 kPa	738.19	–
323.15 K, 65010 kPa	741.02	–
348.14 K, 1040 kPa	–	1017.2
348.14 K, 1060 kPa	–	1018.1
348.14 K, 30150 kPa	–	1220.8
348.14 K, 59870 kPa	–	1375.2
348.14 K, 90060 kPa	–	1503.8
348.14 K, 120210 kPa	–	1613.8
348.14 K, 150180 kPa	–	1710.4
348.14 K, 180310 kPa	–	1798.1
348.14 K, 210230 kPa	–	1877.8
348.14 K, 240360 kPa	–	1951.8
348.14 K, 269990 kPa	–	2019.2
348.14 K, 300420 kPa	–	2084.3
348.14 K, 330170 kPa	–	2144.5
348.14 K, 360170 kPa	–	2202.2
348.14 K, 390070 kPa	–	2256.5
348.15 K, 1010 kPa	675.18	–
348.15 K, 5030 kPa	679.76	–
348.15 K, 5040 kPa	679.76	–
348.15 K, 10030 kPa	685	–
348.15 K, 15020 kPa	689.84	–
348.15 K, 20040 kPa	694.44	–
348.15 K, 25050 kPa	698.79	–
348.15 K, 30030 kPa	702.84	–
348.15 K, 35050 kPa	706.74	–
348.15 K, 40020 kPa	710.4	–
348.15 K, 45070 kPa	714.01	–
348.15 K, 50040 kPa	717.37	–
348.15 K, 55050 kPa	720.67	–
348.15 K, 60000 kPa	723.79	–
348.15 K, 65040 kPa	726.84	–
373.14 K, 1020 kPa	–	924.94
373.14 K, 30120 kPa	–	1147.9
373.14 K, 60040 kPa	–	1312.4
373.14 K, 90420 kPa	–	1447
373.14 K, 120190 kPa	–	1559.5
373.14 K, 150200 kPa	–	1659
373.14 K, 180540 kPa	–	1749
373.14 K, 210010 kPa	–	1829.3
373.14 K, 240370 kPa	–	1905.5
373.14 K, 270130 kPa	–	1974.7
373.14 K, 300130 kPa	–	2040.3
373.14 K, 330240 kPa	–	2102.3
